From ChEMBL document CHEMBL5241057, “Outline of gelatinase inhibitors as anti-cancer agents: A patent mini-review for 2010-present” (Eur J Med Chem, 2021) come the findings set out here.

The structures appear in SMILES notation. Where a SMILES comes first, the peptide text is derived from it. [ ]: non-standard residue; d: D form. The star is where a group is joined. ξ: configuration not given here. Pro(trans-4-F) = O=C(O)[C@@H]1C[C@@H](F)CN1; NMeIle(3ξ) = CCC(C)[C@H](NC)C(=O)O; Dab = NCC[C@H](N)C(=O)O; Hexanoyl = CCCCCC(=O)*; Bz = O=C(c1ccccc1)*; NHOH = ON* Some results are limits rather than exact numbers.

For experiment [1], the target named is T1, 72 kDa type IV collagenase (Homo sapiens, UniProt P08253). Kind of experiment: Inhibition of MMP2 (unknown origin).
T1 sequence (P08253 whole entry): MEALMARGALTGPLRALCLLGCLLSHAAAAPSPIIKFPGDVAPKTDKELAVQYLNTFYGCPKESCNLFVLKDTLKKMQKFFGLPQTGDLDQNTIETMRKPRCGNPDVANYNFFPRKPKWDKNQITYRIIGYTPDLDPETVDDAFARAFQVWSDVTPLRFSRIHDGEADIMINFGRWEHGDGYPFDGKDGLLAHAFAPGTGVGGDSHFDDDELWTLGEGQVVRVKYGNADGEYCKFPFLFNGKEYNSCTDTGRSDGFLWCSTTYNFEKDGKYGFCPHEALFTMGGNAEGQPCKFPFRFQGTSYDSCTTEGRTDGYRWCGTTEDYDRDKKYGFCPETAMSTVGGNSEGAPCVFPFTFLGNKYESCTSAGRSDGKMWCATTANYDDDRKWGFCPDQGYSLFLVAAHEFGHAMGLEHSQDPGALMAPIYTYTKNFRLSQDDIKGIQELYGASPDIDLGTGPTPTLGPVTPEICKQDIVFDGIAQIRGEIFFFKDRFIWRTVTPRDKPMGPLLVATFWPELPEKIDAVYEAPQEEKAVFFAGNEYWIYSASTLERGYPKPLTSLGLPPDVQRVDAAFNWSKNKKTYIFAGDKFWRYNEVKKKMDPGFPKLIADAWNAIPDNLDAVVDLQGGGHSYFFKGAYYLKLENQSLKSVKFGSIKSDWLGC
Experiment [2] deals with T2, Matrix metalloproteinase-9 (Homo sapiens, UniProt P14780). Kind of experiment: Inhibition of MMP9 (unknown origin) assessed as inhibition constant.
T2 sequence (P14780 whole entry): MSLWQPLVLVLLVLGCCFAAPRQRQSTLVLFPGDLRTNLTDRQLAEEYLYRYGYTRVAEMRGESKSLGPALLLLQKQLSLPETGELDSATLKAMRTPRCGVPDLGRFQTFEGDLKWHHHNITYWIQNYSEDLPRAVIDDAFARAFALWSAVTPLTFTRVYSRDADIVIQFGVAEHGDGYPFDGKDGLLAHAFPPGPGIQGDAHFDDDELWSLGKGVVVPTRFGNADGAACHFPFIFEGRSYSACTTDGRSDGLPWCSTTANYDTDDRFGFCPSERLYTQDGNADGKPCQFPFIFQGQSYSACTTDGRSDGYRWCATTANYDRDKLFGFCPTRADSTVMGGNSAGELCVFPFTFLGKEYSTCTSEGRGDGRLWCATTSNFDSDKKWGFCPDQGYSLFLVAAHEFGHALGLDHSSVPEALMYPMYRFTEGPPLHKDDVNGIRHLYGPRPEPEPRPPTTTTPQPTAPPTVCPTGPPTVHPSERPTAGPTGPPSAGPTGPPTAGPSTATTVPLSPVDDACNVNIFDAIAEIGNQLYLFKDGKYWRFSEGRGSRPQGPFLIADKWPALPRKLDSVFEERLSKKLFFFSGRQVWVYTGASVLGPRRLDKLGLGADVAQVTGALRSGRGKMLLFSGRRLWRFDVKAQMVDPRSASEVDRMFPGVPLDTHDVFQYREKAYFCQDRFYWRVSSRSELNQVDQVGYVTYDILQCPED
Experiment [3] addresses Macrophage metalloelastase (Homo sapiens, UniProt P39900). Nature of the experiment: Inhibition of MMP12 (unknown origin).
Experiment [4] has as its target T2, Matrix metalloproteinase-9. Nature of the experiment: Inhibition of MMP9 (unknown origin).
Another experiment has as its target Neutrophil collagenase (Homo sapiens, UniProt P22894). Kind of experiment: Inhibition of MMP8 (unknown origin).
Experiment [5] addresses T3, Matrilysin (Homo sapiens, UniProt P09237).
T3 sequence (P09237 whole entry): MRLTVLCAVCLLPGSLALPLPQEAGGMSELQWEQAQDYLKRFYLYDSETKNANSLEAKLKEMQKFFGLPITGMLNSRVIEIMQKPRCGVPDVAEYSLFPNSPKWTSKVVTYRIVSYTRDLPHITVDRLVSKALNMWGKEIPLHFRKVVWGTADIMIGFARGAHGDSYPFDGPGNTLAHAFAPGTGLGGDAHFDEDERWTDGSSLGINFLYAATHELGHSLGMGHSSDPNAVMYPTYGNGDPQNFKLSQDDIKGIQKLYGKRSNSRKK
Kind of experiment: Inhibition of MMP7 (unknown origin) assessed as inhibition constant.

Experiment [6] has as its target Matrix metalloproteinase-14 (Homo sapiens, UniProt P50281). Nature of the experiment: Inhibition of MMP14 (unknown origin).
In experiment [7] the target is T3, Matrilysin. Kind of experiment: Inhibition of MMP7 (unknown origin).
In experiment [8] the test system is B16-BL6. Kind of experiment: Antimetastatic activity in mouse implanted with mouse B16-BL6 cells assessed as inhibition of lung metastasis at 5 mg/kg relative to control. It counts as functional. Further details: scale not given: the % may be the effect or the level left.
The test system of experiment [9] is B16-BL6. Kind of experiment: Antimetastatic activity in mouse implanted with mouse B16-BL6 cells assessed as inhibition of lung metastasis at 7.5 mg/kg relative to control. The class given is functional. Further details: scale not given: the % may be the effect or the level left.
Experiment [10] has as its system B16-BL6. Kind of experiment: Antimetastatic activity in mouse implanted with mouse B16-BL6 cells assessed as inhibition of lung metastasis at 2.5 mg/kg relative to control. It counts as functional. The arrangement: scale not given: the % may be the effect or the level left.
Experiment [11] has as its target T1, 72 kDa type IV collagenase. Nature of the experiment: Inhibition of MMP2 (unknown origin) assessed as inhibition constant.
Experiment [12] addresses T2, Matrix metalloproteinase-9. Kind of experiment: Inhibition of MMP9 (unknown origin) assessed as dissociation constant.

Chain of Macrophage metalloelastase (P39900 whole entry): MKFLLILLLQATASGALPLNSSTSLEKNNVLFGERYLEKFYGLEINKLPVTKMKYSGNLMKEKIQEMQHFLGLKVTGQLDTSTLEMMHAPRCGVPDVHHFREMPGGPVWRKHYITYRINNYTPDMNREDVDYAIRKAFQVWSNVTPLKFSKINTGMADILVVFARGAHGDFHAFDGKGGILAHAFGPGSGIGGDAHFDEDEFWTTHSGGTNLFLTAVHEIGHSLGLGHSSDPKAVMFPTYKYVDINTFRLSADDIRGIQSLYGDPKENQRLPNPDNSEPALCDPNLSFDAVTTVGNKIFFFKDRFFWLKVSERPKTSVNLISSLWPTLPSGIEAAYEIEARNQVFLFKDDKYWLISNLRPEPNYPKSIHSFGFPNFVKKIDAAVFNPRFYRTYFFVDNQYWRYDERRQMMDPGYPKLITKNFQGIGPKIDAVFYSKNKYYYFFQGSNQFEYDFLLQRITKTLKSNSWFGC
Chain of Neutrophil collagenase (P22894 whole entry): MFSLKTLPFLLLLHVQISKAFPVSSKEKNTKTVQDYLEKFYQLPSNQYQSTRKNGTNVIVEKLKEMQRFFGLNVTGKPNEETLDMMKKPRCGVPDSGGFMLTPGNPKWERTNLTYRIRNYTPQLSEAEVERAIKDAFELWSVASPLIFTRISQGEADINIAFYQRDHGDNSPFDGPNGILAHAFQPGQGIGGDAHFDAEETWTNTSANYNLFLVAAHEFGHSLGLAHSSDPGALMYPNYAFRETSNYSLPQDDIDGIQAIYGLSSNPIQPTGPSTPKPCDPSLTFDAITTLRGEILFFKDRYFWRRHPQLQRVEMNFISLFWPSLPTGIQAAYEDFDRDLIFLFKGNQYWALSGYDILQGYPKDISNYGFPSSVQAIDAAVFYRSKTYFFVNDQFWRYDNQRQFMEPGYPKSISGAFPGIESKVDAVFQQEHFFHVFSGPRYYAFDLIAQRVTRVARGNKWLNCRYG

For the compound `NS(=O)(=O)c1cc(C(=O)c2ccc3c(-c4ccccc4)c[nH]c3c2)ccc1Cl`, in experiment [1], the IC50 (commonly the midpoint of a concentration-inhibition curve) amounted to 53 nM. For the compound `COC(=O)Cc1ccc(Oc2ccc(S(=O)(=O)CC3CS3)cc2)cc1` (centres undefined), the Ki – broadly, a dissociation constant, usually derived from enzyme kinetics or from competition with a known ligand – in [2] was found to be 180 nM.

Regarding `Cc1ccc(-c2cc(-c3ccc(S(=O)(=O)N[C@H](C(=O)O)C(C)C)cc3)no2)s1`, the IC50 in experiment [3] is 0.368 nM; in [4], 0.34 nM; in [1], 0.0449 nM; at Neutrophil collagenase it was 0.567 nM. Turning to `NCc1nc(-c2ccc(Oc3ccc(S(=O)(=O)CC4CS4)cc3)cc2)no1` (centres undefined), the IC50 in [1] came to 630 nM. As to `CC(=O)NCc1ccc(Oc2ccc(S(=O)(=O)CC3CS3)cc2)cc1` (centres undefined), in experiment [1], the IC50 turned out to be 234 nM. With `CN(C)c1ccc(-c2cn(-c3ccc(S(=O)(=O)NC(Cc4ccccc4)C(=O)NO)cc3)nn2)cc1` (centres undefined), the inhibition constant Ki on Matrilysin [5] worked out at 116000 nM. The IC50 amounted to 1 nM in [4] and 0.22 nM in experiment [1]. Take `Cc1nc2ccccc2n(CC(=O)NN/C=C\c2cccc([N+](=O)[O-])c2)c1=O`: half-maximal inhibition in experiment [1] (IC50) was put at 2010 nM. `CC(C)=CCc1cc(/C=C/C(=O)O)cc(CC=C(C)C)c1O` [ARTEPILLIN]: the IC50 in [6] was found to be 350000 nM; in experiment [1], 3100 nM; at Matrilysin [7] it was 320000 nM. As for `NCc1ccc(Oc2ccc(S(=O)(=O)CC3CS3)cc2)cc1` (centres undefined), half-maximal inhibition in experiment [1] (IC50) required 85 nM. In the case of `C[C@@H]1O[C@@H](O[C@H]2[C@H](O[C@H]3CC[C@@]4(C)C(CC[C@]5(C)C4CC=C4C6CC(C)(C)CC[C@]6(C(=O)O)CC[C@]45C)[C@]3(C)COC(=O)[C@]3(O)C[C@@H](O)[C@@H](O)[C@H](OC(=O)/C=C/c4ccc(O)c(O)c4)C3)OC[C@H](O)[C@@H]2O)[C@H](O)[C@H](O)[C@H]1O` (some centres undefined), the Activity came to 52.9% with B16-BL6 [8], 75.2% in the experiment with B16-BL6 [9] and 43.5% with B16-BL6 [10]. Further, the IC50 in [4] turned out to be 7050 nM; in experiment [1], 6230 nM. In [1], `CCCCCC(=O)N1C[C@H](F)C[C@H]1C(=O)N(C)[C@H](C(=O)N[C@@H](CCNC(=O)c1ccccc1)C(=O)NO)C(C)CC` (stereo partly drawn) (Hexanoyl-[Pro(trans-4-F)]-[NMeIle(3ξ)]-[Dab](Bz)-{NHOH}) showed an IC50 below 1 nM. With `O=C(NO)C1(S(=O)(=O)c2ccc(-n3cc(-c4ccc(-c5ccncc5)cc4)nn3)cc2)CCOCC1`, the IC50 in [1] was found to be 0.23 nM. `Cc1ccc(NCC(=O)[C@@H](Cc2ccccc2)NC(=O)Cn2c(=O)c(C)nc3ccccc32)cc1`: it took 10500 nM to reach half-maximal inhibition in experiment [1] (IC50). Take `CC(C)c1noc([C@@H](NC(=O)[C@H](CC2CCCC2)[C@H](O)C(=O)NO)C(C)(C)C)n1`: the IC50 in experiment [4] was below 100 nM.

Consider `CCc1ccc(-c2cc(-c3ccc(S(=O)(=O)N[C@H](C(=O)O)C(C)C)cc3)no2)s1`, for which the IC50 in experiment [3] came to 0.566 nM; in [4], 0.29 nM; in experiment [1], 0.065 nM. With `CN([C@H]1CN(C(N)=O)C[C@@H]1S)S(=O)(=O)c1ccc(Oc2ccccc2)cc1`, the figures for the concentration for half-maximal inhibition (IC50) in [2] and in experiment [11] were 1.3 nM and 2.3 nM, respectively. On to `NCCCCCC(=O)N1C[C@H](NS(=O)(=O)c2ccc(Oc3ccccc3)cc2)[C@@H](S)C1`, for which the IC50 in experiment [2] worked out at 2.3 nM; in experiment [11], 2.2 nM. On to `O=C(CCCSc1nc(=O)c2ccccc2[nH]1)Nc1nc2ccccc2[nH]1`, for which the IC50 in [12] amounted to 300 nM. As for `CS(=O)(=O)Nc1ccc(Oc2ccc(S(=O)(=O)CC3CS3)cc2)cc1` (centres undefined), in [2], the concentration for half-maximal inhibition (IC50) was found to be 80 nM.
